In brackets after ≈: the same amount, converted by molar mass. Entries after “also recorded” stand apart in the source; their conditions may differ. Where two headings read alike, the source gives them in different places.
How the values were obtained:
Mtb H37Rv = details: cited from earlier work; for MIC90 / MIC (H37Rv): previously reported
Mycobacterium smegmatis = test system: Mycobacterium smegmatis; design: method as in earlier work; details: ref 33 (Van Puyvelde et al.); cited from earlier work
[1] = test system: Mtb H37Ra strain (ATCC 25177); assay: Broth microdilution growth inhibition assay against Mtb H37Ra; assay type: cell-based, Mycobacterium tuberculosis; details: for antitubercular activity (in words): Mtb H37Ra; for MIC90: 90% inhibition of Mtb H37Ra growth
[2] = Resazurin reduction cytotoxicity assay, Raw264.7; details: mouse
[3] = Resazurin reduction cytotoxicity assay, THP-1 macrophages; details: human
[4] = Resazurin reduction cytotoxicity assay, HepG2; details: human, HepG2 hepatocellular carcinoma cells
in vitro = details: human, CC50, BEAS-2B, 24 h exposure, resazurin; mean ± SD (n = 3)
[5] = Resazurin reduction cytotoxicity assay, IMR90; details: human, IMR-90 fetal lung fibroblasts
HepG2 cells = assay: Resazurin reduction cytotoxicity assay, HepG2; details: HepG2, 24 h exposure, resazurin; mean ± SD (n = 3)
Mtb H37Ra = details: cited from earlier work
[6] = Mycobacterium tuberculosis, pure commercial compounds, 50% inhibition of Mtb H37Ra growth, mean ± SD, read-out: MIC50
[7] = Mycobacterium tuberculosis, pure commercial compounds, mean ± SD, read-out: MIC90
[8] = pure commercial compounds, 50% inhibition of Mtb H37Ra growth, mean ± SD, read-out: MIC50
[9] = pure commercial compounds, 50% inhibition of Mtb H37Ra growth, mean ± SD
[10] = pure commercial compounds, mean ± SD

CC(C)C1=C(O)C(=O)C2=C(C=C[C@H]3C(C)(C)CCC[C@]23C)C1=O [6,7-dehydroroyleanone]
MIC90 (Mtb H37Rv; Mtb H37Rv, ref 10 (Baldin et al.)): 31.2 µg/mL (≈ 99.2 µM)

C=C[C@]1(C)C=C2[C@H](O)C[C@@H]3C(C)(CCC[C@@]3(C)CO)[C@H]2CC1 (stereo partly drawn) [8(14),15-sandaracopimaradiene-7α,18diol]
MIC90 (Mycobacterium smegmatis): 12 µg/mL (≈ 39.4 µM)

C=C1CC[C@H]2O[C@]2(C)CC[C@@H]2[C@@H]1CC2(C)C [Caryophyllene oxide]
antitubercular activity (in words) [1]: very low to no activity; also recorded: inactive | MIC50 [1, 6]: > 200 µM | MIC90 [1, 7]: > 200 µM | MIC50 [1, 8]: > 200 µM

COc1ccc(-c2oc3cc(OC)c(OC)c(O)c3c(=O)c2OC)cc1O [Casticin]
MIC50 [1, 6]: > 200 µM | MIC90 [1, 7]: > 200 µM | MIC50 [1, 8]: >200 µM

COc1cc2oc(-c3ccc(O)c(O)c3)cc(=O)c2c(O)c1OC [Cirsiliol]
CC50 at 24 h ([2]; Raw264.7 macrophage cells): 71.2 ± 44.1 µM | CC50 at 24 h [3]: 11.2 ± 2.7 µM | CC50 at 24 h [4]: > 250 µM | CC50 (in vitro): > 250 µM | MIC50 [1, 6]: 80.3 µM (≈ 26.5 µg/mL) | MIC90 [1, 7]: > 200 µM | MIC50 [1, 9]: 80.3 ± 43 µM (≈ 26.5 µg/mL) | MIC90 ([1]; pure commercial compounds, mean ± SD, read-out: MIC90): >200 µM | CC50 at 24 h [5]: 108 ± 44.1 µM

CC[C@@H](CO)NCCN[C@@H](CC)CO [Ethambutol, reference compound]
MIC50 [1, 6]: 10.3 ± 4 µM (≈ 2.1 µg/mL) | MIC90 [1, 7]: 17.3 ± 0.96 µM (≈ 3.53 µg/mL)

COc1c(O)cc2oc(-c3ccc(O)cc3)cc(=O)c2c1O [Hispidulin]
CC50 at 24 h [2]: 227 ± 36.7 µM | CC50 at 24 h [3]: 21.1 ± 14.5 µM | CC50 (in vitro): > 250 µM | MIC50 [1, 6]: 54.8 µM (≈ 16.5 µg/mL) | MIC90 [1, 7]: 162 µM (≈ 48.6 µg/mL) | MIC50 [1, 9]: 54.8 ± 25.6 µM (≈ 16.5 µg/mL) | MIC90 [1, 10]: 162 ± 75 µM (≈ 48.6 µg/mL)

NC[C@H]1O[C@H](O[C@H]2[C@H](O)[C@@H](O[C@H]3O[C@H](CO)[C@@H](O)[C@H](N)[C@H]3O)[C@H](N)C[C@@H]2N)[C@H](O)[C@@H](O)[C@@H]1O [Kanamycin, reference compound]
MIC50 [1, 9]: 3.3 ± 0.40 µM (≈ 1.6 µg/mL) | MIC90 [1, 10]: 7.5 ± 1.7 µM (≈ 3.63 µg/mL)

CC1(C)C[C@H](O)C[C@@]2(C)OC(=O)C=C12 [Loliolide]
antitubercular activity (in words) [1]: inactive | MIC50 [1, 6]: > 200 µM | MIC90 [1, 7]: > 200 µM | MIC50 [1, 8]: > 200 µM

O=c1cc(-c2ccc(O)c(O)c2)oc2cc(O)cc(O)c12 [Luteolin]
MIC90 / MIC (H37Rv) (Mtb H37Rv; Mtb H37Rv): 78.12 µg/mL (≈ 273 µM)

COc1cc(C2c3c(cc(OC)c(O)c3OC)CC(CO)C2CO)cc(OC)c1O (stereo not drawn) [Lyoniresinol]
antitubercular activity (in words) [1]: inactive | MIC50 [1, 6]: > 200 µM | MIC90 [1, 7]: > 200 µM | MIC50 [1, 8]: > 200 µM

C=Cc1c(C)c2cc3nc(c4c5[nH]c(cc6nc(cc1[nH]2)C(C)=C6CC)c(C)c5C(=O)[C@@H]4C(=O)OC)[C@@H](CCC(=O)O)[C@@H]3C [Pheophorbide A]
CC50 at 24 h ([2]; Raw264.7 macrophage cells): 20.9 ± 6.5 µM | CC50 at 24 h [3]: 1.4 ± 0.8 µM | CC50 at 24 h [4]: > 84.3 µM | CC50 (HepG2 cells): no cytotoxicity | CC50 (in vitro): ~4.9 µM | MIC50 [1, 6]: 10.5 ± 5 µM (≈ 6.22 µg/mL) | MIC90 [1, 7]: 17 ± 7.6 µM (≈ 10.1 µg/mL) | MIC50 [1, 8]: 10.5 µM (≈ 6.22 µg/mL) | CC50 at 24 h [5]: ~11.5 µM

O=c1c(O)c(-c2ccc(O)c(O)c2)oc2cc(O)cc(O)c12 [Quercetin]
MIC90 (Mtb H37Rv; H37Rv): 6.25 µg/mL (≈ 20.7 µM)

C/C1=C\CC(C)(C)/C=C/C(=O)/C(C)=C/CC1 [Zerumbone]
CC50 at 24 h ([2]; Raw264.7 macrophage cells): 44.5 ± 3.5 µM | CC50 at 24 h [3]: 51.6 ± 31.6 µM | CC50 at 24 h [4]: > 250 µM | CC50 (in vitro): 149 ± 43.2 µM | antitubercular activity (in words) [1]: very low to no activity; also recorded: inactive | MIC50 ([1]; Mycobacterium tuberculosis): > 200 µM | MIC90 [1, 7]: > 200 µM | MIC50 [1, 8]: >200 µM | CC50 at 24 h [5]: 79.8 ± 48.7 µM

COc1ccc(-c2coc3cc(O)c(OC)cc3c2=O)cc1 [afrormosin]
MIC90 (Mtb H37Ra): 50 µg/mL (≈ 168 µM)

O=c1cc(-c2ccc(O)cc2)oc2cc(O)cc(O)c12 [apigenin]
MIC90 / MIC (H37Rv) (Mtb H37Rv; Mtb H37Rv): 70 µg/mL (≈ 259 µM)

COc1ccc(-c2coc3cc(O)ccc3c2=O)cc1 [formononetin]
MIC90 (Mtb H37Ra): 25 µg/mL (≈ 93.2 µM)

O=C1CC(c2ccc(O)cc2)Oc2cc(O)ccc21 (stereo not drawn) [liquitirigenin]
MIC (H37Ra) (Mtb H37Ra; previously reported MIC90): 25 µg/mL (≈ 97.6 µM)

CC(C)=CCC[C@](C)(O)[C@@H]1CC=C(C)CC1 [α-bisabolol]
CC50 at 24 h ([2]; Raw264.7 macrophage cells): 174 ± 26.2 µM | CC50 at 24 h ([3]; THP-1-derived macrophages (PMA-differentiated)): > 250 µM | CC50 at 24 h [4]: > 250 µM | CC50 (in vitro): > 250 µM | MIC50 ([1]; Mycobacterium tuberculosis): > 200 µM | MIC90 [1, 7]: > 200 µM | MIC50 [1, 8]: >200 µM | CC50 at 24 h [5]: > 250 µM

Source: PMC12526154, “Bioactive Compounds Discovery from French Guiana Plant Extracts Through Antitubercular Screening and Molecular Networking” (Plants, 2025)
